# Experimental data from US7109338B2, “1,2-disubstituted 1,4-dihydro-4-oxoquinoline compounds” (priority 1999, dated 2006).
# Experiments:
# [1] = tested on: coxsackievirus type B4 (CB4,JVB); assay: In vitro anti-picornavirus activity (MTT), CB4; assay type: cell-based; details: HeLa cells, MTT method, 37° C.
# [2] = tested on: HRV39 (209); assay: Anti-rhinovirus spectrum (MTT), HRV39; assay type: cell-based, human rhinovirus; set-up: Anti-Rhinovirus activity, HRV39: unit not given here
# [3] = tested on: simian rotavirus (SRoV, SA11); assay: In vitro anti-rotavirus activity (plaque reduction), SRoV; assay type: cell-based; details: MA104 cells, four days after infection
# Procedure: (§1) Human rotavirus (HROV, Odelia) and simian rotavirus (SRoV, SA11) were used in this experiment. Confluent monolayers of MA104 cells in 6-well multiplate were washed with Eagle MEM containing 0.5 μg/ml of trypsin and were infected with tripsinized-rotavirus (treated with 10 μg/ml of tripsin at 37° C. for 1.5 hr) at 50 PFU per well. After 1 hr of adsorption, the virus inoculum was removed, and the monolayers were washed with Eagle MEM containing 0.5 μg/ml of trypsin and overlaid with Eagle MEM containing 1 μg/ml of trypsin, 0.6% purified agar and the test compounds at various concentrations. The cultures were incubated at 37° C. for 3 days and same overlay medium was added. Four days after infection, the cell sheets were washed with PBS and stained with 1.3% crystal violet in 95% ethanol. The antiviral efficacy of the compounds was expressed as the IC50, that is the concentration of the compounds required to reduce the number of plaques to 50% in the control (virus-infected, but […]).
# [4] = tested on: clinical isolate (89229T); assay: microbe, parasite or virus in culture; assay type: cell-based, human rhinovirus; set-up: Anti-Rhinovirus activity, Clinical isolated strain: unit not given here
# [5] = tested on: HRV41 (56110); assay: Anti-rhinovirus spectrum (MTT), HRV41; assay type: cell-based, human rhinovirus; set-up: Anti-Rhinovirus activity, HRV41: unit not given here
# [6] = tested on: HeLa cells; assay: Cytotoxicity (MTT, without virus), HeLa; details: HeLa, no virus, incubated for 4 days
# [7] = tested on: HRV16 (11757); assay: Anti-rhinovirus spectrum (MTT), HRV16; assay type: cell-based, human rhinovirus; set-up: Anti-Rhinovirus activity, HRV16: unit not given here
# [8] = tested on: coxsackievirus type A7 (CA7); assay: In vitro anti-picornavirus activity (MTT), CA7; assay type: cell-based; details: HeLa-S3 cells, MTT method, 37° C.
# [9] = tested on: HRV61 (6669-CV39); assay: Anti-rhinovirus spectrum (MTT), HRV61; assay type: cell-based, human rhinovirus; set-up: Anti-Rhinovirus activity, HRV61: unit not given here
# [10] = tested on: HRV13 (353); assay: Anti-rhinovirus spectrum (MTT), HRV13; assay type: cell-based, human rhinovirus; set-up: Anti-Rhinovirus activity, HRV13: unit not given here
# [11] = tested on: human rhinovirus type 1B (HRV 1B, B632); assay: Anti-rhinovirus activity (MTT), HRV1B; assay type: cell-based; set-up: Anti-Rhinovirus activity, HRV1B: unit not given here; details: for IC50 HRV1B: HeLa (Ohio strain) cells, MTT method, 33° C.
# [12] = tested on: HeLa (Ohio strain)cells; assay: Cytotoxicity (MTT, without virus), HeLa(Ohio); details: HeLa(Ohio), no virus, incubated for 4 days
# [13] = tested on: Poliovirus type 1 (Polio 1, Sabin); assay: microbe, parasite or virus in culture; assay type: cell-based
# [14] = tested on: HRV31 (41F); assay: Anti-rhinovirus spectrum (MTT), HRV31; assay type: cell-based, human rhinovirus; set-up: Anti-Rhinovirus activity, HRV31: unit not given here
# [15] = tested on: HRV3(FEB); assay: Anti-rhinovirus spectrum (MTT), HRV3; assay type: cell-based, human rhinovirus; set-up: Anti-Rhinovirus activity, HRV3: unit not given here
# [16] = tested on: HRV29 (5582); assay: Anti-rhinovirus spectrum (MTT), HRV29; assay type: cell-based, human rhinovirus; set-up: Anti-Rhinovirus activity, HRV29: unit not given here
# [17] = tested on: HRV14 (1059); assay: Anti-rhinovirus activity (MTT), HRV14; assay type: cell-based, human rhinovirus; set-up: Anti-Rhinovirus activity, HRV14: unit not given here
# [18] = tested on: HRV8(MRH); assay: Anti-rhinovirus spectrum (MTT), HRV8; assay type: cell-based, human rhinovirus; set-up: Anti-Rhinovirus activity, HRV8: unit not given here
# [19] = tested on: HRV50(A2#58); assay: Anti-rhinovirus spectrum (MTT), HRV50; assay type: cell-based, human rhinovirus; set-up: Anti-Rhinovirus activity, HRV50: unit not given here
# [20] = tested on: HRV 2 (HGP); assay: Anti-rhinovirus activity (MTT), HRV2; assay type: cell-based, human rhinovirus; set-up: Anti-Rhinovirus activity, HRV2: unit not given here; details: for IC50 HRV2: HeLa (Ohio strain) cells, MTT method, 33° C.
# [21] = tested on: HRV1A (E28); assay: Anti-rhinovirus activity (MTT), HRV1A; assay type: cell-based, human rhinovirus; set-up: Anti-Rhinovirus activity, HRV1A: unit not given here
# [22] = tested on: HRV32 (363); assay: Anti-rhinovirus spectrum (MTT), HRV32; assay type: cell-based, human rhinovirus; set-up: Anti-Rhinovirus activity, HRV32: unit not given here
# [23] = tested on: HRV36 (342H); assay: Anti-rhinovirus spectrum (MTT), HRV36; assay type: cell-based, human rhinovirus; set-up: Anti-Rhinovirus activity, HRV36: unit not given here
# [24] = tested on: echovirus type 11 (Echo 11, Gregory); assay: In vitro anti-picornavirus activity (MTT), Echo 11; assay type: cell-based; details: HeLa-S3 cells, MTT method, 37° C.
# [25] = tested on: HRV21 (47); assay: Anti-rhinovirus spectrum (MTT), HRV21; assay type: cell-based, human rhinovirus; set-up: Anti-Rhinovirus activity, HRV21: unit not given here
# [26] = tested on: HRV5; assay: Anti-rhinovirus spectrum (MTT), HRV5; assay type: cell-based, human rhinovirus; set-up: Anti-Rhinovirus activity, HRV5: unit not given here
# [27] = tested on: Human rotavirus (HROV, Odelia); assay: In vitro anti-rotavirus activity (plaque reduction), HRoV; assay type: cell-based; details: MA104 cells, four days after infection
# Procedure: as §1
# [28] = tested on: HRV 89 (41617-Gallo); assay: Anti-rhinovirus activity (MTT), HRV89; assay type: cell-based, human rhinovirus; set-up: Anti-Rhinovirus activity, HRV89: unit not given here; details: for IC50 HRV89: HeLa (Ohio strain) cells, MTT method, 33° C.
# [29] = tested on: HeLa-S3 cells; assay: Cytotoxicity (MTT, without virus), HeLa-S3; details: HeLa-S3, no virus, incubated for 4 days
# [30] = tested on: HRV10 (204-CV14); assay: Anti-rhinovirus spectrum (MTT), HRV10; assay type: cell-based, human rhinovirus; set-up: Anti-Rhinovirus activity, HRV10: unit not given here
# [31] = tested on: HRV33 (1200); assay: Anti-rhinovirus spectrum (MTT), HRV33; assay type: cell-based, human rhinovirus; set-up: Anti-Rhinovirus activity, HRV33: unit not given here
# [32] = HeLa (Ohio strain) cells, MTT method, 33° C.
smiles,measurement,setting,value
Cc1c(-c2ccccc2)n(-c2ccc(F)cc2)c2ccc(C(C)C)cc2c1=O [Compound A323],IC50 CB4,[1],>2 µg/mL
same,"Anti-Rhinovirus activity, HRV39","[2]; Table VII, rhinovirus serotype HRV39",0.018
same,Anti-rotavirus activity IC50 SRoV(SA11),[3],0.90 µg/mL
same,Anti-rhinovirus activity Clinically isolated strain,"[4]; Table VII, clinical isolate (89229T)",0.030
same,"Anti-Rhinovirus activity, HRV41","[5]; Table VII, rhinovirus serotype HRV41",0.058
same,Cytotoxicity CC50 HeLa,[6],>2 µg/mL
same,"Anti-Rhinovirus activity, HRV16","[7]; Table VII, rhinovirus serotype HRV16",0.033
same,IC50 CA7,[8],>2 µg/mL
same,"Anti-Rhinovirus activity, HRV61","[9]; Table VII, rhinovirus serotype HRV61",0.30
same,"Anti-Rhinovirus activity, HRV13","[10]; Table VII, rhinovirus serotype HRV13",0.12
same,IC50 HRV1B,[11],0.27 µg/mL
same,"Anti-Rhinovirus activity, HRV1B","[11]; Table VII, rhinovirus serotype HRV1B",0.27
same,Cytotoxicity CC50 HeLa(Ohio),[12],>2 µg/mL
same,IC50 Polio 1,[13],>2 µg/mL
same,"Anti-Rhinovirus activity, HRV31","[14]; Table VII, rhinovirus serotype HRV31",0.088
same,"Anti-Rhinovirus activity, HRV3","[15]; Table VII, rhinovirus serotype HRV3",>2.0
same,"Anti-Rhinovirus activity, HRV29","[16]; Table VII, rhinovirus serotype HRV29",0.11
same,"Anti-Rhinovirus activity, HRV14","[17]; Table VII, rhinovirus serotype HRV14",>2.0
same,"Anti-Rhinovirus activity, HRV8","[18]; Table VII, rhinovirus serotype HRV8",>2.0
same,"Anti-Rhinovirus activity, HRV50","[19]; Table VII, rhinovirus serotype HRV50",0.038
same,IC50 HRV2,[20],0.038 µg/mL
same,"Anti-Rhinovirus activity, HRV2","[20]; Table VII, rhinovirus serotype HRV2",0.038
same,"Anti-Rhinovirus activity, HRV1A","[21]; Table VII, rhinovirus serotype HRV1A, same method as above",>2.0
same,"Anti-Rhinovirus activity, HRV32","[22]; Table VII, rhinovirus serotype HRV32",0.077
same,"Anti-Rhinovirus activity, HRV36","[23]; Table VII, rhinovirus serotype HRV36",0.13
same,IC50 Echo 11,[24],>2 µg/mL
same,"Anti-Rhinovirus activity, HRV21","[25]; Table VII, rhinovirus serotype HRV21",0.067
same,"Anti-Rhinovirus activity, HRV5","[26]; Table VII, rhinovirus serotype HRV5",>2.0
same,Anti-rotavirus activity IC50 HRoV(Odelia),[27],1.30 µg/mL
same,IC50 HRV89,[28],0.011 µg/mL
same,"Anti-Rhinovirus activity, HRV89","[28]; Table VII, rhinovirus serotype HRV89",0.011
same,Cytotoxicity CC50 HeLa-S3,[29],>2 µg/mL
same,"Anti-Rhinovirus activity, HRV10","[30]; Table VII, rhinovirus serotype HRV10",0.032
same,"Anti-Rhinovirus activity, HRV33","[31]; Table VII, rhinovirus serotype HRV33",0.30
"CCc1ccc2c(c1)Cc1c-2n(CC)c2ccc(C(C)C)cc2c1=O [Compound B9, 2.5-Diethyl-8-isopropyl-5,10-dihydro-11H-indeno[1,2-b]quinolin-10-one]",IC50 CB4,[1],0.56 µg/mL
same,"Anti-Rhinovirus activity, HRV39",[2]; HRV39,0.20
same,Anti-rotavirus activity IC50 SRoV(SA11),[3],0.59 µg/mL
same,"Anti-Rhinovirus activity, Clinical isolated strain",[4]; Clinical isolated strain,0.31
same,"Anti-Rhinovirus activity, HRV41",[5]; HRV41,0.13
same,Cytotoxicity CC50 HeLa,[6],>1 µg/mL
same,"Anti-Rhinovirus activity, HRV16",[7]; HRV16,0.47
same,IC50 CA7,[8],0.71 µg/mL
same,"Anti-Rhinovirus activity, HRV61",[9]; HRV61,0.16
same,"Anti-Rhinovirus activity, HRV13",[10]; HRV13,0.14
same,"Anti-Rhinovirus activity, HRV1B",[11]; HRV1B,0.25
same,IC50 HRV1B,[11],0.25 µg/mL
same,Cytotoxicity CC50 HeLa(Ohio),[12],>1 µg/mL
same,IC50 Polio 1,[13],0.18 µg/mL
same,"Anti-Rhinovirus activity, HRV31",[14]; HRV31,0.15
same,"Anti-Rhinovirus activity, HRV3",[15]; HRV3,0.23
same,"Anti-Rhinovirus activity, HRV29",[16]; HRV29,0.19
same,"Anti-Rhinovirus activity, HRV14",[17]; HRV14,0.58
same,IC50 HRV 14,[17]; [32],0.58 µg/mL
same,"Anti-Rhinovirus activity, HRV8",[18]; HRV8,0.15
same,"Anti-Rhinovirus activity, HRV50",[19]; HRV50,0.13
same,"Anti-Rhinovirus activity, HRV2",[20]; HRV2,0.20
same,IC50 HRV2,[20],0.20 µg/mL
same,"Anti-Rhinovirus activity, HRV1A",[21]; HRV1A,>1.0
same,IC50 HRV 1A,[21]; [32],>1 µg/mL
same,"Anti-Rhinovirus activity, HRV32",[22]; HRV32,0.13
same,"Anti-Rhinovirus activity, HRV36",[23]; HRV36,0.16
same,IC50 Echo 11,[24],0.18 µg/mL
same,"Anti-Rhinovirus activity, HRV21",[25]; HRV21,0.16
same,"Anti-Rhinovirus activity, HRV5",[26]; HRV5,0.17
same,Anti-rotavirus activity IC50 HRoV(Odelia),[27],0.56 µg/mL
same,"Anti-Rhinovirus activity, HRV89",[28]; HRV89,0.21
same,IC50 HRV89,[28],0.21 µg/mL
same,Cytotoxicity CC50 HeLa-S3,[29],>1 µg/mL
same,"Anti-Rhinovirus activity, HRV10",[30]; HRV10,0.47
same,"Anti-Rhinovirus activity, HRV33",[31]; HRV33,0.094
